Measurements as given in patent US9745324B2, “Iminothiadiazepane dioxide compounds as BACE inhibitors, compositions, and their use” (Merck Sharp & Dohme Corp., priority 2013, dated 2017).
Read-outs that look alike come from different tables or passages of the source.

Columns and labels:
[1] = target: purified human autoBACE-2 (Homo sapiens, UniProt Q9Y5Z0); assay: BACE-2 Assay (BACE-HTRF assay); format: biochemical; conditions: Ki calculated from IC50 using the Cheng-Prusoff equation, pH 5.0, read-out: BACE2 Ki
Sequence of purified human autoBACE-2 (Q9Y5Z0 63-518 limits assumed): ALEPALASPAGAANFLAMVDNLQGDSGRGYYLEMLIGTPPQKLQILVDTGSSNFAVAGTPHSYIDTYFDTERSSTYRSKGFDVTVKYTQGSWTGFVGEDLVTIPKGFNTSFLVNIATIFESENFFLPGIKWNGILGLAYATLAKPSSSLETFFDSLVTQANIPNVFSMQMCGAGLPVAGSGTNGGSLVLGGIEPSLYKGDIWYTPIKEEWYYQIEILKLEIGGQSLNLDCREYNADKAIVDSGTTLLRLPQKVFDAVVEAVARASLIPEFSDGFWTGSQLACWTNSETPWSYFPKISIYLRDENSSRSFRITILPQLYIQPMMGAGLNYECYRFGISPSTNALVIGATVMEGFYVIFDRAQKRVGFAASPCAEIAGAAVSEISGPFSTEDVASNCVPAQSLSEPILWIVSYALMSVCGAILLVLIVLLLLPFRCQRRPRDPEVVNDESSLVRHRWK
Method: DMSO is present at 5% final concentration in the assay. Following laser excitation of sample wells at 320 nm, the fluorescence signal at 620 nm is collected for 400 ms following a 50 μs delay on a RUBYstar HTRF plate reader (BMG Labtechnologies). Raw RFU data is normalized to maximum (1.0 nM BACE/DMSO) and minimum (no enzyme/DMSO) RFU values. […] The Ki values are calculated from the IC50 using the Cheng-Prusoff equation.

[2] = target: soluble human BACE1 catalytic domain (Homo sapiens (Human), UniProt P56817); assay: BACE1 HTRF FRET Assay; format: biochemical; conditions: Ki calculated from IC50 using the Cheng-Prusoff equation; QSY7-APPswe-Eu substrate, pH 5.0
Sequence of soluble human BACE1 catalytic domain (P56817 75-416): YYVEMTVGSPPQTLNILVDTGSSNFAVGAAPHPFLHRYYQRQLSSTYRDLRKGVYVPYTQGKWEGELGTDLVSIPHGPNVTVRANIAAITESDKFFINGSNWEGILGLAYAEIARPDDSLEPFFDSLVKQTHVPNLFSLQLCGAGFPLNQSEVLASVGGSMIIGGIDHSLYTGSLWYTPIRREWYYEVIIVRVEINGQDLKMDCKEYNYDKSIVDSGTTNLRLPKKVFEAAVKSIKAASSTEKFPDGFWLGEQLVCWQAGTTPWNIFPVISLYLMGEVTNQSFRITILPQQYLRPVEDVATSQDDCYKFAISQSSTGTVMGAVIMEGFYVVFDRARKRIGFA
Source text: Reagents: Na^+-Acetate pH 5.0; 1% Brij-35; Glycerol; Dimethyl Sulfoxide (DMSO); Recombinant human soluble BACE1 catalytic domain (>95% pure); APP Swedish mutant peptide substrate (QSY7-APP^swe-Eu): QSY7-[…]-Europium-amide (SEQ ID 1).
A homogeneous time-resolved FRET assay can be used to determine IC50 values for inhibitors of the soluble human BACE1 catalytic domain. This assay monitors the increase of 620 nm fluorescence that resulted from BACE1 cleavage of an APPswedish APP^swe mutant peptide FRET substrate (QSY7-[…]-Europium-amide (SEQ ID 1)). This substrate contains an N-terminal QSY7 moiety that serves as a quencher of the C-terminal Europium fluorophore (620 nm Em). […] Inhibition of BACE1 cleavage of the QSY7-APP^swe-Eu substrate by inhibitors is manifested as a suppression of 620 nm fluorescence.
Varying concentrations of inhibitors at 3× the final desired concentration in a volume of 10 ul are preincubated with purified human BACE1 catalytic domain (3 nM in 10 μl) for 30 minutes at 30° C. in reaction buffer containing 20 mM Na-Acetate pH 5.0, 10% glycerol, 0.1% Brij-35 and 7.5% DSMO. Reactions are initiated by addition of 10 μl of 600 nM QSY7-APP^swe-Eu substrate (200 nM final) to give a final reaction volume of 30 μl in a 384 well Nunc HTRF plate. The reactions are incubated at 30° C. for 1.5 hours. The 620 nm fluorescence is then read on a Rubystar HTRF plate reader (BMG Labtechnologies) using a 50 millisecond delay followed by a 400 millisecond acquisition time window. Inhibitor IC50 values are derived from non-linear regression analysis of concentration response curves.

[3] = QSY7-EISEVNLDAEFC-Eu-amide substrate

| Compound | Ki [1, 3] [nM] | Ki [2] [nM] | Ki ([1]; QSY7-[…]-Eu-amide substrate) [nM] |
| --- | --- | --- | --- |
| COCC(=O)Nc1ccc(F)c([C@]2(C)CN(C)S(=O)(=O)C(C)(C)C(=N)N2)c1 [Example 25, N-{4-fluoro-3-[(4R)-6-imino-2,4,7,7-tetramethyl-1,1-dioxido-1,2,5-thiadiazepan-4-yl]phenyl}-2-methoxyacetamide] | 122 | 756 |  |
| Cc1nc(C(=O)Nc2ccc(F)c([C@]3(C)CN(C)S(=O)(=O)C(C)(C)C(=N)N3)c2)no1 [Example 15, N-{4-fluoro-3-[(4R)-6-imino-2,4,7,7-tetramethyl-1,1-dioxido-1,2,5-thiadiazepan-4-yl]phenyl}-5-methyl-1,2,4-oxadiazole-3-carboxamide] | 27 | 153 |  |
| CN1C[C@@](C)(c2cc(NC(=O)c3cn(C)nc3C(F)(F)F)ccc2F)NC(=N)C(C)(C)S1(=O)=O [Example 26, N-{4-fluoro-3-[(4R)-6-imino-2,4,7,7-tetramethyl-1,1-dioxido-1,2,5-thiadiazepan-4-yl]phenyl}-1-methyl-3-(trifluoromethyl)-1H-pyrazole-4-carboxamide] | 6510 | 8790 |  |
| CN1C[C@@](C)(c2cc(Nc3nccn4ccnc34)ccc2F)NC(=N)C(C)(C)S1(=O)=O [Example 44, (R)-4-(2-fluoro-5-(imidazo[1,2-a]pyrazin-8-ylamino)phenyl)-6-imino-2,4,7,7-tetramethyl-1,2,5-thiadiazepane 1,1-dioxide] |  | 1350 | 270 |
| Cc1cc(C(=O)Nc2ccc(F)c([C@]3(C)CN(C)S(=O)(=O)C(C)(C)C(=N)N3)c2)on1 [Example 22, N-{4-fluoro-3-[(4R)-6-imino-2,4,7,7-tetramethyl-1,1-dioxido-1,2,5-thiadiazepan-4-yl]phenyl}-3-methylisoxazole-5-carboxamide] | 1020 | 1690 |  |
| CO[C@@H](C)C(=O)Nc1ccc(F)c([C@]2(C)CN(C)S(=O)(=O)C(C)(C)C(=N)N2)c1 [Example 34, (2S)-N-{4-fluoro-3-[(4R)-6-imino-2,4,7,7-tetramethyl-1,1-dioxido-1,2,5-thiadiazepan-4-yl]phenyl}-2-methoxypropanamide] | 1120 | 3060 |  |
| Cc1nc2ccc(C(=O)Nc3ccc(F)c([C@]4(C)CN(C)S(=O)(=O)C(C)(C)C(=N)N4)c3)cc2o1 [Example 20, N-{4-fluoro-3-[(4R)-6-imino-2,4,7,7-tetramethyl-1,1-dioxido-1,2,5-thiadiazepan-4-yl]phenyl}-2-methyl-1,3-benzoxazole-6-carboxamide] | > 9540 | 1140 |  |
| CN1C[C@@](C)(c2cc(NC(=O)c3cnc(OCC(F)(F)F)cn3)ccc2F)NC(=N)C(C)(C)S1(=O)=O [Example 12, N-{4-fluoro-3-[(4R)-6-imino-2,4,7,7-tetramethyl-1,1-dioxido-1,2,5-thiadiazepan-4-yl]phenyl}-5-(2,2,2-trifluoroethoxy)pyrazine-2-carboxamide] | 171 | 17 |  |
| CN1C[C@@](C)(c2cc(NC(=O)c3ccn(C(F)F)n3)ccc2F)NC(=N)C(C)(C)S1(=O)=O [Example 2, 1-(difluoromethyl)-N-{4-fluoro-3-[(4R)-6-imino-2,4,7,7-tetramethyl-1,1-dioxido-1,2,5-thiadiazepan-4-yl]phenyl}-1H-pyrazole-3-carboxamide] | 6 | 46 |  |
| COc1cnc(C(=O)Nc2ccc(F)c([C@]3(C)CN(C)S(=O)(=O)C(C)(C)C(=N)N3)c2)c(C)c1 [Example 9, N-{4-fluoro-3-[(4R)-6-imino-2,4,7,7-tetramethyl-1,1-dioxido-1,2,5-thiadiazepan-4-yl]phenyl}-5-methoxy-3-methylpyridine-2-carboxamide] | 32 | 68 |  |
| CN1C[C@@](C)(c2cc(Nc3nccc4cc(C#N)cnc34)ccc2F)NC(=N)C(C)(C)S1(=O)=O [Example 41, (R)-8-((4-fluoro-3-(6-imino-2,4,7,7-tetramethyl-1,1-dioxido-1,2,5-thiadiazepan-4-yl)phenyl)amino)-1,7-naphthyridine-3-carbonitrile] |  | 20 | 16 |

Continued, in another order:

| Ki [1, 3] [nM] | Ki [2] [nM] | Compound | Ki ([1]; QSY7-[…]-Eu-amide substrate) [nM] |
| --- | --- | --- | --- |
| 43 | 228 | CN1C[C@@](C)(c2cc(NC(=O)c3ccccn3)ccc2F)NC(=N)C(C)(C)S1(=O)=O [Example 21, N-{4-fluoro-3-[(4R)-6-imino-2,4,7,7-tetramethyl-1,1-dioxido-1,2,5-thiadiazepan-4-yl]phenyl}pyridine-2-carboxamide] |  |
| 13 | 54 | CN1C[C@@](C)(c2cc(NC(=O)c3ccc(F)cn3)ccc2F)NC(=N)C(C)(C)S1(=O)=O [Example 3, 5-fluoro-N-{4-fluoro-3-[(4R)-6-imino-2,4,7,7-tetramethyl-1,1-dioxido-1,2,5-thiadiazepan-4-yl]phenyl}pyridine-2-carboxamide] |  |
| 32 | 22 | CN1C[C@@](C)(c2cc(NC(=O)c3ccc(C#N)cn3)ccc2F)NC(=N)C(C)(C)S1(=O)=O [Example 8, 5-cyano-N-{4-fluoro-3-[(4R)-6-imino-2,4,7,7-tetramethyl-1,1-dioxido-1,2,5-thiadiazepan-4-yl]phenyl}pyridine-2-carboxamide] |  |
| 110 | 263 | CN1C[C@@](C)(c2cc(NC(=O)c3cnccn3)ccc2F)NC(=N)C(C)(C)S1(=O)=O [Example 13, N-{4-fluoro-3-[(4R)-6-imino-2,4,7,7-tetramethyl-1,1-dioxido-1,2,5-thiadiazepan-4-yl]phenyl}pyrazine-2-carboxamide] |  |
| 8 |  | CN1C[C@@](C)(c2cc(NC(=O)c3ccc(Cl)cn3)ccc2F)NC(=N)C(C)(C)S1(=O)=O [Example 7, 5-chloro-N-{4-fluoro-3-[(4R)-6-imino-2,4,7,7-tetramethyl-1,1-dioxido-1,2,5-thiadiazepan-4-yl]phenyl}pyridine-2-carboxamide] |  |
| 361 | 153 | CN1C[C@@](C)(c2cc(NC(=O)c3cnc(C(F)(F)F)cn3)ccc2F)NC(=N)C(C)(C)S1(=O)=O [Example 37, N-{4-fluoro-3-[(4R)-6-imino-2,4,7,7-tetramethyl-1,1-dioxido-1,2,5-thiadiazepan-4-yl]phenyl}-5-(trifluoromethyl)pyrazine-2-carboxamide] |  |
| 42 | 271 | CN1C[C@@](C)(c2cc(NC(=O)c3ccn(C)n3)ccc2F)NC(=N)C(C)(C)S1(=O)=O [Example 18, N-{4-fluoro-3-[(4R)-6-imino-2,4,7,7-tetramethyl-1,1-dioxido-1,2,5-thiadiazepan-4-yl]phenyl}-1-methyl-1H-pyrazole-3-carboxamide] |  |
| 195 | 15 | C#CCOc1ccc(C(=O)Nc2ccc(F)c([C@]3(C)CN(C)S(=O)(=O)C(C)(C)C(=N)N3)c2)nc1 [Example 36, N-{4-fluoro-3-[(4R)-6-imino-2,4,7,7-tetramethyl-1,1-dioxido-1,2,5-thiadiazepan-4-yl]phenyl}-5-(prop-2-yn-1-yloxy)pyridine-2-carboxamide] |  |
| 34.3 | 2.3 | C#CCOc1cnc(C(=O)Nc2ccc(F)c([C@]3(C)CN(C)S(=O)(=O)C(C)(C)C(=N)N3)c2)cn1 [Example 39, N-{4-fluoro-3-[(4R)-6-imino-2,4,7,7-tetramethyl-1,1-dioxido-1,2,5-thiadiazepan-4-yl]phenyl}-5-(prop-2-yn-1-yloxy)pyrazine-2-carboxamide] |  |
